Compound	glass transition temperature
*/C=C(/*)CCCOc1ccc(OC(=O)c2ccc(OCCCCCCCC)cc2)cc1 (repeat unit)	42.00 °C
*C(=O)Nc1ccc(-c2cc(-c3ccccc3)cc(-c3ccc(NC(=O)c4ccc5c(c4)C(=O)N(c4ccc(NC(=O)Nc6ccc(N7C(=O)c8ccc(*)cc8C7=O)cc6)cc4)C5=O)cc3)n2)cc1 (repeat unit)	215.00 °C
*C(=O)Nc1ccc(-c2ccc(NC(=O)c3ccc4c(c3)C(=O)N(c3ccc(NC(=O)Nc5ccc(N6C(=O)c7ccc(*)cc7C6=O)cc5)cc3)C4=O)cc2)cc1 (repeat unit)	233.00 °C
*C(=O)Nc1ccc(C(=O)c2ccc(NC(=O)c3ccc4c(c3)C(=O)N(c3cccc(P(=O)(c5ccccc5)c5cccc(N6C(=O)c7ccc(*)cc7C6=O)c5)c3)C4=O)cc2)cc1 (repeat unit)	238.00 °C
*C(=O)Nc1ccc(C(c2ccc(NC(=O)c3ccc4c(c3)C(=O)N(c3ccc(Oc5ccc6ccc(Oc7ccc(N8C(=O)c9ccc(*)cc9C8=O)cc7)cc6c5)cc3)C4=O)cc2)(C(F)(F)F)C(F)(F)F)cc1 (repeat unit)	292.00 °C
*C(=O)Nc1ccc(C2(c3ccc(N4C(=O)c5ccc(*)cc5C4=O)cc3)CCCCC2)cc1 (repeat unit)	319.00 °C
*C(=O)Nc1ccc(Cc2ccc(N3C(=O)CC(N4C(=O)c5ccc(*)cc5C4=O)C3=O)cc2)cc1 (repeat unit)	123.00 °C
*C(=O)Nc1ccc(Cc2ccc(NC(=O)c3ccc4c(c3)C(=O)N(c3ccc(-c5sc(-c6ccc(N7C(=O)c8ccc(*)cc8C7=O)cc6)c(-c6ccccc6)c5-c5ccccc5)cc3)C4=O)cc2)cc1 (repeat unit)	253.00 °C
*C(=O)Nc1ccc(N2C(=O)CC(N3C(=O)c4ccc(*)cc4C3=O)C2=O)cc1 (repeat unit)	120.00 °C
*C(=O)Nc1ccc(NC(=O)c2ccc3c(c2)C(=O)N(c2ccc(NC(=O)Nc4ccc(N5C(=O)c6ccc(*)cc6C5=O)cc4)cc2)C3=O)cc1 (repeat unit)	216.00 °C
*C(=O)Nc1ccc(Oc2ccc(NC(=O)c3ccc4c(c3)C(=O)N(c3ccc(NC(=O)Nc5ccc(N6C(=O)c7ccc(*)cc7C6=O)cc5)cc3)C4=O)cc2)cc1 (repeat unit)	205.00 °C
*C(=O)Nc1ccc(S(=O)(=O)c2ccc(NC(=O)c3ccc4c(c3)C(=O)N(c3ccc(NC(=O)Nc5ccc(N6C(=O)c7ccc(*)cc7C6=O)cc5)cc3)C4=O)cc2)cc1 (repeat unit)	205.00 °C
*C(=O)OCCCCCCCCCCCCOC(=O)c1ccc(NC(=O)c2ccc(N3C(=O)c4ccc(*)cc4C3=O)cc2)cc1 (repeat unit)	74.00 °C
*C(=O)OCCCCCCCOC(=O)c1ccc(NC(=O)c2ccc(N3C(=O)c4ccc(*)cc4C3=O)cc2)cc1 (repeat unit)	106.00 °C
*C(=O)OCCCCCCOC(=O)c1ccc(NC(=O)c2ccc(N3C(=O)c4ccc(*)cc4C3=O)cc2)cc1 (repeat unit)	107.00 °C
*C(=O)OCCCCOC(=O)c1ccc(NC(=O)c2ccc(N3C(=O)c4ccc(*)cc4C3=O)cc2)cc1 (repeat unit)	130.00 °C
*CCCCCCCCOC(=O)Nc1ccc(Cc2ccc(NC(=O)O*)cc2)cc1 (repeat unit)	79.00 °C
*CCCCOC(=O)Nc1ccc(Cc2ccc(NC(=O)O*)cc2)cc1 (repeat unit)	109.00 °C
*CCCOC(=O)Nc1ccc(Cc2ccc(NC(=O)O*)cc2)cc1 (repeat unit)	119.00 °C

Compound	glass transition temperature
*CCN(CCOC(=O)Nc1ccc(Cc2ccc(NC(=O)O*)cc2)cc1)c1ccc(/N=N/c2ccc([N+](=O)[O-])cc2)cc1 (repeat unit)	136.40 °C
*CCN(CCOC(=O)Nc1ccc(Cc2ccc(NC(=O)O*)cc2)cc1)c1ccccc1 (repeat unit)	31.90 °C
*CCOC(=O)Nc1ccc(Cc2ccc(NC(=O)OCCOc3ccc(O*)cc3)cc2)cc1 (repeat unit)	98.00 °C
*Cc1ccc2oc(=O)c(C(=O)Nc3ccc(C(c4ccc(NC(=O)c5cc6cc(*)ccc6oc5=O)cc4)(C(F)(F)F)C(F)(F)F)cc3)cc2c1 (repeat unit)	329.00 °C
*Nc1ccc(C(=O)c2ccc(NC(=O)c3ccc(C(*)=O)cc3)cc2)cc1 (repeat unit)	300.00 °C
*Nc1ccc(C(=O)c2ccc(NC(=O)c3cccc(C(*)=O)c3)cc2)cc1 (repeat unit)	253.20 °C
*Nc1ccc(C(c2ccc(NC(=O)c3ccc(-c4ccc(C(*)=O)cc4)cc3)cc2)(P2(=O)Oc3ccccc3-c3ccccc32)P2(=O)Oc3ccccc3-c3ccccc32)cc1 (repeat unit)	251.00 °C
*Nc1ccc(C(c2ccc(NC(=O)c3ccc(C(c4ccc(C(*)=O)cc4)(C(F)(F)F)C(F)(F)F)cc3)cc2)(P2(=O)Oc3ccccc3-c3ccccc32)P2(=O)Oc3ccccc3-c3ccccc32)cc1 (repeat unit)	235.00 °C
*Nc1ccc(Cc2ccc(NC(=O)Nc3ccccc3CCc3ccc(NC(*)=O)cc3)cc2)cc1 (repeat unit)	217.00 °C
*Nc1ccc(Cc2ccc(NC(=O)c3cc(C(*)=O)cc(N4C(=O)C5C6C=CC(C6)C5C4=O)c3)cc2)cc1 (repeat unit)	303.00 °C
*Nc1ccc(Cc2ccc(NC(=O)c3cc(C(*)=O)cc(N4C(=O)C=CC4=O)c3)cc2)cc1 (repeat unit)	287.00 °C
*Nc1ccc(Cc2ccc(NC(=O)c3ccc(P(=O)(c4ccccc4)c4ccc(C(*)=O)cc4)cc3)cc2)cc1 (repeat unit)	307.00 °C
*Nc1ccccc1-c1ccc(NC(=O)c2ccc(C(*)=O)cc2)cc1 (repeat unit)	275.00 °C
*Nc1ccccc1-c1ccc(NC(=O)c2cccc(C(*)=O)c2)cc1 (repeat unit)	248.00 °C
*Nc1ccccc1CCc1ccc(NC(*)=O)cc1 (repeat unit)	198.00 °C
*OC(=O)Nc1ccc(Cc2ccc(NC(=O)OC3CC4CC(*)CC(C3)O4)cc2)cc1 (repeat unit)	200.00 °C
*OC(COC(=O)Nc1ccc(Cc2ccc(NC(*)=O)cc2)cc1)c1ccco1 (repeat unit)	40.00 °C
*Oc1ccc(/N=C/C=N/c2ccc(OC(=O)Nc3ccc(Cc4ccc(NC(*)=O)cc4)cc3)cc2)cc1 (repeat unit)	133.00 °C
*Oc1ccc(C(=O)Nc2ccc(C(c3ccc(NC(=O)c4ccc(OC(=O)c5ccc(C(*)=O)cc5)cc4)cc3)(C(F)(F)F)C(F)(F)F)cc2)cc1 (repeat unit)	266.00 °C

Compound	glass transition temperature
*Oc1ccc(C(=O)Nc2ccccc2-c2ccc(NC(=O)c3ccc(*)cc3)cc2)cc1 (repeat unit)	251.00 °C
*Oc1ccc(Oc2ccc(C(=O)Nc3ccc(Cc4ccc(NC(=O)c5ccc(*)cc5)cc4)cc3)cc2)cc1-c1ccccc1 (repeat unit)	218.00 °C
*Oc1ccc(Oc2ccc(C(=O)c3ccc(NC(=O)c4cccc(C(=O)Nc5ccc(C(=O)c6ccc(*)cc6)cc5)c4)cc3)cc2)cc1 (repeat unit)	198.00 °C
*Oc1ccc(S(=O)(=O)c2ccc(Oc3ccc(C(=O)c4ccc(-c5ccc(C(=O)c6ccc(*)cc6)cc5)cc4)cc3)cc2)cc1 (repeat unit)	207.00 °C
*Oc1cccc(Oc2ccc(C(=O)c3ccc(NC(=O)c4ccc(C(=O)Nc5ccc(C(=O)c6ccc(*)cc6)cc5)cc4)cc3)cc2)c1 (repeat unit)	190.00 °C
*Oc1cccc(Oc2ccc(C(=O)c3ccc(NC(=O)c4cccc(C(=O)Nc5ccc(C(=O)c6ccc(*)cc6)cc5)c4)cc3)cc2)c1 (repeat unit)	214.00 °C
*c1ccc(C(=O)Nc2ccc(N3C(=O)c4ccc(-c5ccc6c(c5)C(=O)N(*)C6=O)cc4C3=O)cc2)cc1 (repeat unit)	335.00 °C
*c1ccc(C(=O)c2ccc(-n3nc(-c4ccc(Oc5ccc(-c6nn(*)c(=O)c7ccccc67)cc5)cc4)c4ccccc4c3=O)cc2)cc1 (repeat unit)	301.00 °C
*c1ccc(C(=O)c2ccc(C(=O)c3ccc(Oc4ccc(-c5nn(*)c(=O)c6ccccc56)c(F)c4)cc3)cc2)cc1 (repeat unit)	287.00 °C
*c1ccc(Cc2ccc(N3C(=O)CC(Nc4ccc(N(c5ccc(NC6CC(=O)N(*)C6=O)cc5)c5ccc([N+](=O)[O-])cc5)cc4)C3=O)cc2)cc1 (repeat unit)	276.00 °C
*c1ccc(Cc2ccc(NC(=O)c3ccc(Oc4ccc5c(c4)C(=O)N(*)C5=O)cc3)cc2)cc1 (repeat unit)	250.00 °C
*c1ccc(Cc2ccc(NC(=O)c3ccc(Oc4cccc5c4C(=O)N(*)C5=O)cc3)cc2)cc1 (repeat unit)	258.00 °C
*c1ccc(NC(=O)c2ccc(C(=O)Nc3ccc(-c4nnc(*)o4)cc3)c(Oc3ccccc3)c2)cc1 (repeat unit)	272.00 °C
*c1ccc(NC(=O)c2ccc(OCCOCCOCCOCCOc3ccc(C(=O)Nc4ccc5[nH]c(*)nc5c4)cc3)cc2)cc1 (repeat unit)	140.00 °C
*c1ccc(NC(=O)c2ccc(OCCOCCOCCOc3ccc(C(=O)Nc4ccc5[nH]c(*)nc5c4)cc3)cc2)cc1 (repeat unit)	155.00 °C
*c1ccc(NC2CC(=O)N(c3ccc(-c4sc(-c5ccc(N6C(=O)CC(Nc7ccc(-c8nc(-c9ccc(-c%10nc(-c%11ccc([N+](=O)[O-])cc%11)c(-c%11ccc([N+](=O)[O-])cc%11)[nH]%10)cc9)[nH]c8*)cc7)C6=O)cc5)c(-c5ccccc5)c4-c4ccccc4)cc3)C2=O)cc1 (repeat unit)	152.00 °C
*c1ccc(Oc2ccc(C(=O)c3ccc(-c4ccc(C(=O)c5ccc(Oc6ccc(-c7nc(-c8cccc(-c9nc(*)c(-c%10ccccc%10)[nH]9)c8)[nH]c7-c7ccccc7)cc6)cc5)cc4)cc3)cc2)cc1 (repeat unit)	276.00 °C
*c1cccc(C(=O)Nc2ccc(Cc3ccc(N4C(=O)c5ccc(S(=O)(=O)c6ccc7c(c6)C(=O)N(c6ccc(Cc8ccc(NC(=O)c9cccc(-c%10nc%11cc(-c%12ccc%13[nH]c(*)nc%13c%12)ccc%11[nH]%10)c9)cc8)cc6)C7=O)cc5C4=O)cc3)cc2)c1 (repeat unit)	270.00 °C

Reference: the PolyMetriX glass transition set
